Data as given in ChEMBL document CHEMBL6177957, “Macrocyclic dihydropyridine analogs as pan-BET BD2-preferred inhibitors” (Eur J Med Chem, 2025).
pKd, pKi: −log10 of the molar value. Active and inactive are the calls of the source. The rule behind the calls is not given here.

Assays:
[1] = biological target: T1, Bromodomain testis-specific protein (Homo sapiens, UniProt Q58F21); test: Binding affinity to BRDT BD2 (unknown origin) at W293 residue
[2] = biological target: T1, Bromodomain testis-specific protein; conditions: dose 100.0 µM, time 30.0 min
[3] = biological target: T1, Bromodomain testis-specific protein; test: Binding affinity to N-terminal hexa histidine-tagged human BRDT BD1 extracted from Escherichia coli BL21 (DE3) cells assessed as inhibition constant incubated for 1 hrs by fluorescence polarization assay
[4] = biological target: T1, Bromodomain testis-specific protein; conditions: dose 100.0 µM, time 30.0 min; remark: listed apart in the source
[5] = biological target: T2, Bromodomain-containing protein 4 (Homo sapiens, UniProt O60885); test: Binding affinity to BRD4 BD2 (unknown origin) assessed as dissociation constant by BROMOscan analysis
[6] = biological target: T1, Bromodomain testis-specific protein; test: Binding affinity to BRDT BD2 (unknown origin) assessed as dissociation constant by BROMOscan analysis
[7] = biological target: T1, Bromodomain testis-specific protein; test: Binding affinity to BRDT BD1 (unknown origin) assessed as dissociation constant by BROMOscan analysis
[8] = biological target: T2, Bromodomain-containing protein 4; test: Binding affinity to BRD4 BD1 (unknown origin) assessed as dissociation constant by BROMOscan analysis
[9] = biological target: T2, Bromodomain-containing protein 4; test: Binding affinity to N-terminal hexa histidine-tagged human BRD4 BD1 extracted from Escherichia coli BL21 (DE3) cells assessed as inhibition constant incubated for 1 hrs by fluorescence polarization assay
MM1.S = test: Downregulation of c-MYC expression in human MM1.S cells measured after 6 hrs by Western blotting analysis; format: functional, cell-based; conditions: dose 0.1-10 µM

`CCn1c2c(c(=O)[nH]c1=O)C1C(=C(C)N2)C(=O)OCc2ccccc2OCCCOc2ccccc21` (stereo not drawn) was tested, and the Activity [1] was “Active”, the ΔTm [2] was 2.8 °C and the pKi [3] was 5.96. For the same compound, the ΔTm [4] was 13 °C.

Compound `CCn1c2c(c(=O)[nH]c1=O)C1C(=C(C)N2)C(=O)OCCCCOc2ccccc21` (stereo not drawn) has a pKi [3] of 4.96.

`CCn1c2c(c(=O)[nH]c1=O)C1C(=C(C)N2)C(=O)OCCCOc2ccccc21` (stereo not drawn) showed a pKi [3] of 5.04.

With `CCn1c2c(c(=O)[nH]c1=O)C1C(=C(C)N2)C(=O)OCc2ccccc2OCCOc2cc1ccc2C` (stereo not drawn) the pKi [3] was < 5.42.

For `CCn1c2c(c(=O)[nH]c1=O)C1C(=C(C)N2)C(=O)OCc2ccccc2OCCOc2cccc1c2` (stereo not drawn), the pKi [3] was < 5.42.

With `CCn1c2c(c(=O)[nH]c1=O)C(c1ccc(C)cc1)C(C(=O)OCc1ccccc1)=C(C)N2` (stereo not drawn) the pKd [5] was 7.19, the pKd [6] was 7.17 and the pKd [7] was 6.11. For the same compound, the pKi [3] was 7.40, the pKd [8] was 6.42 and the pKi [9] was 6.82.

`CCn1c2c(c(=O)[nH]c1=O)C1C(=C(C)N2)C(=O)OCCCCOc2cc(C)ccc21` (stereo not drawn) showed a pKi [3] of 5.77.

In the case of `CCn1c2c(c(=O)[nH]c1=O)C1C(=C(C)N2)C(=O)NCc2ccccc2OCCCOc2ccccc21` (stereo not drawn), the pKi [3] was < 5.42 and the pKi [9] was < 5.42.

With `CCn1c2c(c(=O)[nH]c1=O)C1C(=C(C)N2)C(=O)OCc2ccccc2OCCCOc2cc(C)ccc21` (stereo not drawn) the pKi [3] was 5.89.

With `CCn1c2c(c(=O)[nH]c1=O)C1C(=C(C)N2)C(=O)OCc2ccccc2OCCOc2cc(C)ccc21` (stereo not drawn) the ΔTm [2] was 3.4 °C, the Activity (MM1.S) was “Dose-dependent-effect” and the ΔTm [4] was 8.9 °C.

With `CCn1c2c(c(=O)[nH]c1=O)C1C(=C(C)N2)C(=O)OCc2ccccc2OCCOc2ccccc21` (stereo not drawn) the pKi [3] was 5.28.

For `CCn1c2c(c(=O)[nH]c1=O)C1C(=C(C)N2)C(=O)OCc2ccccc2OCCCOc2cc1ccc2C` (stereo not drawn), the pKi [3] was 4.92.

Compound `CCn1c2c(c(=O)[nH]c1=O)C1C(=C(C)N2)C(=O)OCc2ccccc2OCCCCOc2ccccc21` (stereo not drawn) has a pKi [3] of 5.72.

For `CCn1c2c(c(=O)[nH]c1=O)C1C(=C(C)N2)C(=O)OCCCOc2cc(C)ccc21` (stereo not drawn), the pKi [3] was 5.09.

With `Cc1sc2c(c1C)C(c1ccc(Cl)cc1)=N[C@@H](CC(=O)OC(C)(C)C)c1nnc(C)n1-2` the Activity (MM1.S) was “Dose-dependent-effect”.

For `CCn1c2c(c(=O)[nH]c1=O)C1C(=C(C)N2)C(=O)OCc2cccc(c2)OCCCOc2cc1ccc2C` (stereo not drawn), the pKi [3] was < 5.42 and the pKi [9] was < 5.42.
